Source: patent US20210330611A1, “THERAPY FOR NEUROLOGICAL DISEASES/DISORDERS” (priority 2020, published 2021)
Like-named read-outs stand apart in the source and are kept apart here.

Legend:
[1] = test system: fibrin-induced microglia activation; test: Image-based assay of fibrin-induced microglia activation (HTS and dose response); format: cell-based, rat; settings: for inhibition at 10 µM: read-out: Fibrin % inhibition
[2] = test system: fibrin- and LPS-induced microglia activation; test: cells; format: cell-based, rat
[3] = test system: primary rat microglia; test: Cell toxicity (dead cells, size <150 μm2) in LPS assay
[4] = test system: primary rat microglia; test: Cell toxicity (dead cells, size <150 μm2) in coated fibrin (cFib) assay;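 as to Fibrin % cell toxicity: share of dead cells sized under 150 µm2 at 10 µM in fibrin-stimulated microglia HTS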
[5] = test system: LPS-induced microglia activation; test: Image-based assay of LPS-induced microglia activation (HTS and dose response); format: cell-based, rat; settings: for inhibition at 10 µM: read-out: LPS % inhibition
[6] = Rattus norvegicus, Microglia, primary microglia HTS, 10 μM, fibrin-stimulated, cell size >800 μm^2 as marker of activation
[7] = HTS of 1907 compounds, quadrant by fibrin and LPS inhibition
[8] = primary microglia HTS, 10 μM, LPS assay, cell size <150 μm^2 as marker of toxicity
[9] = primary microglia HTS, 10 μM, fibrin assay, cell size <150 μm^2 as marker of toxicity
[10] = Rattus norvegicus, Microglia, primary microglia HTS, 10 μM, LPS-stimulated, cell size >800 μm^2 as marker of activation
[11] = quadrant by fibrin and LPS inhibition in HTS of 1907 compounds
[12] = primary microglia HTS, LPS stimulation, toxicity = cell size <150 μm2
[13] = primary microglia HTS, fibrin stimulation, toxicity = cell size <150 μm2
[14] = Rattus norvegicus, Microglia, primary microglia HTS, fibrin stimulation, increased cell size (>800 μm^2) as marker of activation
[15] = primary microglia HTS, LPS stimulation, decreased size (<150 μm^2) as marker of toxicity
[16] = primary microglia HTS, fibrin stimulation, decreased size (<150 μm^2) as marker of toxicity
[17] = Rattus norvegicus, Microglia, 48 h, primary microglia HTS, LPS stimulation, increased cell size (>800 μm^2) as marker of activation
[18] = Rattus norvegicus, Microglia, primary microglia HTS, fibrin stimulation, activation = cell size >800 μm2
[19] = Rattus norvegicus, Microglia, 48 h, primary microglia HTS, LPS stimulation, activation = cell size >800 μm2
[20] = primary microglia HTS, 10 μM, fibrin-stimulated, cell size >800 μm^2 as marker of activation
[21] = primary microglia HTS, 10 μM, LPS-stimulated, cell size >800 μm^2 as marker of activation
[22] = primary microglia HTS, fibrin stimulation, increased cell size (>800 μm^2) as marker of activation
[23] = primary microglia HTS, LPS stimulation, increased cell size (>800 μm^2) as marker of activation
[24] = Rattus norvegicus, Microglia, primary HTS, 10 μM, fibrin-stimulated primary microglia
[25] = primary HTS, 10 μM, LPS assay, dead cells size <150 μm2
[26] = primary HTS, 10 μM, fibrin assay, dead cells size <150 μm2
[27] = Rattus norvegicus, Microglia, primary HTS, 10 μM, LPS-stimulated primary microglia

Structure (SMILES)	inhibition at 10 µM [1, 6]	Quadrant (FIG. 5b) [2, 7]	LPS % cell toxicity [3, 8]	Fibrin % cell toxicity [4, 9]	inhibition at 10 µM [5, 10]	Quadrant (FIG. 5b) [2, 11]	LPS % cell toxicity [3, 15]	Fibrin % cell toxicity [4, 16]	other results
Cc1cn([C@H]2C=C[C@@H](CO)O2)c(=O)[nH]c1=O [Stavudine]	-17%	Q4	0%	1%	19%	–	–	–	–
Cc1onc(-c2ccccc2)c1-c1ccc(S(N)(=O)=O)cc1 [Valdecoxib]	-39%	Q4	0%	1%	-4%	–	–	–	–
CC(=O)O[C@H]1C[C@H](O[C@H]2[C@@H](O)C[C@H](O[C@H]3[C@@H](O)C[C@H](O[C@H]4CC[C@@]5(C)[C@H](CC[C@@H]6[C@@H]5C[C@@H](O)[C@]5(C)[C@@H](C7=CC(=O)OC7)CC[C@]65O)C4)O[C@@H]3C)O[C@@H]2C)O[C@H](C)[C@H]1O[C@@H]1O[C@H](CO)[C@@H](O)[C@H](O)[C@H]1O [Lanatoside C]	–	–	–	–	–	Q4	–	–	Fibrin % inhibition ([1]; primary microglia HTS, fibrin stimulation, activation = cell size >800 μm2): 17%; LPS % cell toxicity [3, 12]: 1%; Fibrin % cell toxicity [4, 13]: 1%; LPS % inhibition ([5]; primary microglia HTS, LPS stimulation, activation = cell size >800 μm2): 35%
CO[C@@H]1[C@@H](OC(N)=O)[C@@H](O)[C@H](Oc2ccc3c(O)c(NC(=O)c4ccc(O)c(CC=C(C)C)c4)c(=O)oc3c2C)OC1(C)C [Novobiocin]	–	–	–	–	–	Q4	0%	0%	inhibition at 10 µM [1, 14]: -17%; inhibition at 10 µM [5, 17]: 8%
CC(=O)OCC(=O)[C@@]1(O)CC[C@H]2[C@@H]3CCC4=CC(=O)C=C[C@]4(C)[C@H]3[C@@H](O)C[C@@]21C [Prednisolone acetate, reference compound]	–	–	–	–	–	Q2	6%	4%	IC50 ([1]; Rattus norvegicus, Microglia, Table 7, read-out: fib_IC50): 0.003 µM; inhibition at 10 µM [1, 14]: 109%; Quadrant (FIG. 5b) ([2]; Table 2, screen at 10 μM): Q2; Activity ([2]; Table 7, fib = fibrin, LPS, tox = toxicity): fib/LPS; inhibition at 10 µM [5, 17]: 111%; IC50 ([5]; Rattus norvegicus, Microglia, Table 7, read-out: LPS_IC50): 0.003 µM
CNCC(O)c1ccc(O)cc1 (stereo not shown) [Synephrine]	-16%	Q4	0%	0%	12%	–	–	–	–
NC(=O)NS(=O)(=O)c1ccc(N)cc1 [Sulfacarbamide]	45%	Q4	0%	1%	46%	–	–	–	–
CC(C)(Oc1ccc(C(=O)c2ccc(Cl)cc2)cc1)C(=O)O [Fenofibric Acid]	–	–	–	–	–	Q4	–	–	inhibition at 10 µM [1, 18]: 6%; LPS % cell toxicity [3, 12]: 0%; Fibrin % cell toxicity [4, 13]: 1%; inhibition at 10 µM [5, 19]: 9%
COc1c(N2CCNC(C)C2)c(F)cc2c(=O)c(C(=O)O)cn(C3CC3)c12 (stereo not shown) [Gatifloxacin]	–	–	–	–	–	Q4	–	–	inhibition at 10 µM [1, 18]: -19%; LPS % cell toxicity [3, 12]: 0%; Fibrin % cell toxicity [4, 13]: 1%; inhibition at 10 µM [5, 19]: 19%
COc1ccc(CN2CCNCC2)c(OC)c1OC [Trimetazidine]	-18%	Q4	0%	1%	1%	–	–	–	–
Cc1ccc(Cl)c(Nc2ccccc2C(=O)O)c1Cl [Meclofenamic Acid]	–	–	–	–	–	Q4	0%	1%	inhibition at 10 µM [1, 14]: 12%; inhibition at 10 µM [5, 17]: 14%
C#C[C@]1(OC(C)=O)CC[C@H]2[C@@H]3CCC4=CC(=NO)CC[C@@H]4[C@H]3CC[C@@]21CC (mixture of isomers) [Norgestimate]	–	–	–	–	–	Q4	0%	0%	inhibition at 10 µM [1, 14]: -5%; inhibition at 10 µM [5, 17]: 12%
CC(C)C[C@H](NC(=O)[C@@H](Cc1c[nH]c2ccccc12)NC(=O)[C@H](Cc1ccc(O)cc1)NC(=O)[C@H](CO)NC(=O)[C@H](Cc1c[nH]c2ccccc12)NC(=O)[C@H](Cc1c[nH]cn1)NC(=O)[C@@H]1CCC(=O)N1)C(=O)N[C@@H](CCCNC(=N)N)C(=O)N1CCC[C@H]1C(=O)NCC(N)=O [Triptorelin]	–	Q4	0%	1%	–	–	–	–	Fibrin % inhibition [1, 20]: −15%; LPS % inhibition [5, 21]: 4%
NC(=O)N1c2ccccc2CC(=O)c2ccccc21 [Oxcarbazepine, Trileptal]	–	–	–	–	–	Q4	0%	1%	Fibrin % inhibition [1, 22]: 3%; LPS % inhibition [5, 23]: 35%
O=C1O[C@H](CO)[C@@H](O)[C@H](O)[C@H]1O [Gluconolactone]	–	–	–	–	–	Q4	–	–	inhibition at 10 µM [1, 18]: -1%; LPS % cell toxicity [3, 12]: 0%; Fibrin % cell toxicity [4, 13]: 0%; inhibition at 10 µM [5, 19]: 17%
C[C@]12CCC(=O)C=C1CC[C@@H]1[C@@H]2CC[C@@]2(C)[C@H]1CC[C@]2(C)O [Methyltestosterone]	–	–	–	–	–	Q4	0%	1%	inhibition at 10 µM [1, 14]: -40%; inhibition at 10 µM [5, 17]: -2%
Cn1nnnc1SCC1=C(C(=O)O)N2C(=O)[C@@H](NC(=O)[C@H](OC=O)c3ccccc3)[C@H]2SC1 [Cefamandole Nafate]	–	–	–	–	–	–	–	–	inhibition at 10 µM [1, 24]: -3%; Quadrant (FIG. 5b) ([2]; primary HTS, 10 μM): Q4; LPS % cell toxicity [3, 25]: 0%; Fibrin % cell toxicity [4, 26]: 0%; inhibition at 10 µM [5, 27]: 12%
CCC(Cc1c(I)cc(I)c(N)c1I)C(=O)O (stereo not shown) [Iopanic acid, reference compound]	–	–	–	–	–	Q3	0%	1%	Fibrin Selectivity [1]: 4; Fibrin Selectivity (LOG10) [1]: 0.58; IC50 ([1]; Table 1, dose response 0.001-20 μM, triplicates, primary rat microglia, 48 h, read-out: Fibrin IC50): 5 µM; IC50 ([1]; Table 3, read-out: Fibrin IC50 (uM) (Suppl. Table 7)): 5 µM; IC50 ([1]; dose response, fibrin-induced microglia activation, read-out: Fibrin IC50): 5 µM; Fibrin % inhibition [1, 22]: 51%; Hit ([2]; HTS hit classification): HIT (Hits were defined as molecules that exhibited greater than 50% inhibition of either fibrin or LPS activation); Quadrant (FIG. 5b) ([2]; Table 1, screen at 10 μM): Q3; Cherry-picked Hit (Suppl. Table 7) ([2]; Table 3): HIT (Hits were defined as molecules that exhibited greater than 50% inhibition of either fibrin or LPS activation); Quadrant (FIG. 5b) ([2]; Table 3, screen at 10 μM): Q3; IC50 ([3]; read-out: Cell Toxicity IC50 (uM) [LPS assay], Table 3): > 20 µM; IC50 ([4]; read-out: Cell Toxicity IC50 (uM) [cFib assay], Table 3): > 20 µM; IC50 ([5]; Table 1, dose response 0.001-20 μM, triplicates, primary rat microglia, 48 h, read-out: LPS IC50): > 20 µM; IC50 ([5]; Table 3, read-out: LPS IC50 (uM) (Suppl. Table 7)): > 20 µM; IC50 ([5]; dose response, LPS-induced microglia activation, read-out: LPS IC50): > 20 µM; LPS % inhibition [5, 23]: 35%
O=c1oc2cc(O)ccc2s1 [Thioxolone, Tioxolone]	–	Q4	0%	0%	–	–	–	–	Fibrin % inhibition [1, 20]: −18%; LPS % inhibition [5, 21]: 12%
CCCCCCCCCCCCCCCC(=O)OC[C@@H](NC(=O)C(Cl)Cl)[C@H](O)c1ccc([N+](=O)[O-])cc1 [Chloramphenicol Palmitate]	–	–	–	–	–	–	–	–	inhibition at 10 µM [1, 24]: 15%; Quadrant (FIG. 5b) ([2]; primary HTS, 10 μM): Q4; LPS % cell toxicity [3, 25]: 1%; Fibrin % cell toxicity [4, 26]: 1%; inhibition at 10 µM [5, 27]: 9%
CC[C@H]1CN2CC[C@H]1C[C@@H]2[C@@H](O)c1ccnc2ccc(OC)cc12 [Hydroquinidine]	–	–	–	–	–	Q4	–	–	inhibition at 10 µM [1, 18]: -8%; LPS % cell toxicity [3, 12]: 0%; Fibrin % cell toxicity [4, 13]: 1%; inhibition at 10 µM [5, 19]: 18%
CNS(=O)(=O)Cc1ccc2[nH]cc(CCN(C)C)c2c1 [Sumatriptan]	-7%	Q4	0%	1%	8%	–	–	–	–
CN(C)c1cc(NC(=O)CNC(C)(C)C)c(O)c2c1C[C@H]1C[C@H]3[C@H](N(C)C)C(O)=C(C(N)=O)C(=O)[C@@]3(O)C(O)=C1C2=O [Tigecycline]	7%	Q4	0%	0%	13%	–	–	–	–
